The values below come from paper PMC9149975, “The diaryl-imidazopyridazine anti-plasmodial compound, MMV652103, exhibits anti-breast cancer activity” (EXCLI Journal, 2022).

The test system of one data set is MCF7 tumors. The experiment in a line: Chick embryo CAM xenograft: tumor weight and metastasis. It counts as in vivo. The note with it: every 48 h E10-E16, weighed E18. The protocol: All studies and procedures were conducted with prior approval of the Animal Ethics Committee of the University of Cape Town (FHS AEC REF NO:016/025) in accordance with the South African National Standard (SANS 10386:008) for the Care and Use of Animals for Scientific Purposes (SABS, 2015[71]), and guidelines from the Department of Health (2015[21]). Fertilized White Leghorn eggs were incubated at 37.5 °C with 50 % relative humidity for 9 days. At stage E9, the chorioallantoic membrane (CAM) was dropped by drilling a small hole through the eggshell into the air sac and a 1 cm^2 window was cut in the eggshell above the CAM. Cultured MCF7 cells were detached with trypsin, washed with complete medium and suspended in PBS. An inoculum of MCF7 cells was grafted onto the CAM of each E9 egg (21 eggs were used for each condition) and at E10, tumors were detectable. MCF7 tumors were treated every 48 h (E10, E12, E14, E16) by dropping 100 μl of vehicle (0.25 % DMSO in PBS), a reference compound (Paclitaxel), or MMV652103, onto the tumour. At E18 the upper portion of the CAM was removed, transferred to PBS and the tumors cut away from normal CAM tissue and weighed. A one-way ANOVA analysis with post-tests was done. In parallel, a 1 cm^2 portion of the lower CAM was collected to evaluate the number of metastatic cells. The relative amount of metastasis was calculated as follows: Tumor cells were grafted onto the upper chorioallantoic membrane (CAM) and during metastasis the cells invade the epithelium and basement membrane of the upper CAM and move through connective tissue into the vasculature into the lower CAM. The cells in the lower CAM are then harvested and genomic DNA is extracted and analyzed by qPCR with specific primers for Alu sequences which are only found in higher primates i.e. it allows for the distinction between human tumor cells and the host chick cells. Statistical analysis was directly performed on data from the Bio-Rad CFX Manager 3.1 software.

Data set [1] has as its system MDA-MB-231 (TNBC) breast cancer cells. In words: MTT cytotoxicity assay, MDA-MB-231. It counts as cell-based. The note with it: Homo sapiens. The protocol:
(§1) Human estrogen-receptor positive (ER+) breast adenocarcinoma cell lines, MCF7 and T47D, were maintained in Roswell Park Memorial Institute-1640 medium (Sigma Aldrich, Missouri, USA) and the human epidermal growth factor receptor 2 positive (HER2+) BT474, and triple negative (TNBC) MDA-MB-231 and MDA-MB-468 cells were maintained in Dulbecco's Modified Eagle's Medium (DMEM) (Sigma Aldrich, Missouri, USA). […]
(§2) Cells (3.5×10^3-6×10^3 / well) were seeded in 96-well plates and treated at a 60-70 % confluence with a range of concentrations (0-10 μM) of test compounds or vehicle for 48 h. Cell viability was measured using the 3-(4,5-dimethylthiazol-2-yl)-2,5-diphenyl-trazolium bromide (MTT) assay (11465007001; Sigma Aldrich) according to the manufacturer's instructions. Mean cell viability was calculated as a percentage of the mean vehicle control. A minimum of three independent experiments in quadruplicate were performed from which the IC50 was determined from sigmoidal plots using GraphPad Prism version 6.0 (GraphPad Software, California, USA). The selectivity index (SI) was determined by dividing the IC50 of a non-malignant cell line by the IC50 of a cancer cell line.
(Tetrazolium assays rely on reduction of a dye to a coloured formazan, in cell work by metabolically active cells.)

The target of a further data set is T1, PIK3C3 (Homo sapiens, UniProt Q8NEB9).
T1 construct: purchased Carna Biosciences Inc; Invitrogen Corporation
T1 sequence (Q8NEB9 whole entry): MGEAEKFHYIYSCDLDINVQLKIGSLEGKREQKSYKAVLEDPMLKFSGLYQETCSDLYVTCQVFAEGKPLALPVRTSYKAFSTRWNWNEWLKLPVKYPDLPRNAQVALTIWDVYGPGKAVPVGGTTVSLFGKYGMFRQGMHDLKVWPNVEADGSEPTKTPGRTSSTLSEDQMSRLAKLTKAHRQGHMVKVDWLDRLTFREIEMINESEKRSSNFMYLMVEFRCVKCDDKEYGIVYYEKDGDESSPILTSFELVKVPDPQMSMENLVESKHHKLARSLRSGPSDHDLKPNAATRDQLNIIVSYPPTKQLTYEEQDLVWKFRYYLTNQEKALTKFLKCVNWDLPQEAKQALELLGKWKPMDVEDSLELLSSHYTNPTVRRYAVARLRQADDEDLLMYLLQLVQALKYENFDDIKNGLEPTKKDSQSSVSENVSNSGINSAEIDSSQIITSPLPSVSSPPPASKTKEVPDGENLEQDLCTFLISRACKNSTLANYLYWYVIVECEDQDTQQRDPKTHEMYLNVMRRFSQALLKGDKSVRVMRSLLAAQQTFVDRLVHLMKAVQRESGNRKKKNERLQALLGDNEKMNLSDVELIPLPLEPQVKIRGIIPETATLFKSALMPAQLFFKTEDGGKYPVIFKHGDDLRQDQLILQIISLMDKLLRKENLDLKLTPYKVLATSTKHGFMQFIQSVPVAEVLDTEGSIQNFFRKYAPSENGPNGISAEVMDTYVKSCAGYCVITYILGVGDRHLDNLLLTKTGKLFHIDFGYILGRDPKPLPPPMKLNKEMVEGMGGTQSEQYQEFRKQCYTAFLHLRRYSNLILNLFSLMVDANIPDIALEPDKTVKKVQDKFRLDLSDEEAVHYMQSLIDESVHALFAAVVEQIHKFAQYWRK
In words: ADP-Glo lipid kinase assay, PIK3C3. It counts as biochemical. As to conditions: 10 µM compound.

Another data set deals with MCF7 cells. The experiment in a line: ROS-Glo H2O2 assay. The class given is cell-based, human. As to conditions: MCF7, 24 h, ½ IC50 and IC50. The protocol:
To determine whether MMV652103 induced oxidative stress in breast cancer cells, the levels of H2O2 were measured using the ROS-Glo™ H2O2 assay kit (G8820, Promega, Wisconsin, USA), according to the manufacturer's instructions. Briefly, cells (2500-4500 cells per well) were seeded in opaque 96 well plates. Cells were treated for 24 h with either vehicle or MMV652103 in a volume of 80 μl per well. After 18 h of incubation, 20 μl H2O2 Substrate Solution was added to each well. After 24 h of incubation 100 μl ROS-Glo™ Detection Solution (prepared by mixing 10 ml Luciferin Detection Reagent, 100 μl D-Cysteine and 100 μl Signal Enhancer Solution) was added to each well and incubated at RT for 20 min. After incubation, the luminescence was read using the GloMax® Explorer Multimode plate reader (Promega, Wisconsin, USA).

The nature of data set [2]: MTT cytotoxicity assay, MCF12A. The class given is cell-based. As to conditions: human, MCF12A non-malignant breast epithelial cells, MTT, read-out: Cytotoxicity assays (MTT) IC50 MCF12A. The method, then: as §1
as §2, with “line. […]” for “line.”

The test system of data set [3] is MCF12A (normal breast epithelial cell line). The experiment in a line: MTT cytotoxicity assay, MCF12A. It counts as cell-based. As to conditions: Homo sapiens, MCF-12A, 48 h, Fig 2C summary, MTT 48 h; read-out: IC50 ± SEM MCF12A. The protocol: as §1
as §2, with “line. […]” for “line.”

Like-named read-outs stand apart in the source and are kept apart here.

Take `CS(=O)(=O)c1ccc(-c2cnc3ccc(-c4cccc(S(C)(=O)=O)c4)nn23)cc1` [MMV652103]: the tumor weight reduction in the data set with MCF7 tumors (4.4 μM) was 34.89%; in the data set with MCF7 tumors (22 μM) it was 41.71%. In addition, the concentration for half-maximal inhibition (IC50) in data set [1] (Fig 2C summary, MTT 48 h, read-out: IC50 ± SEM MDA-MB-231) was 14.3 ± 1.03 µM; in data set [1] (MTT, 48 h, read-out: IC50 MDA-MB-231) it was 14.3 µM; in data set [3], 6.6 ± 1.07 µM. For the same compound, at PIK3C3, the remaining activity at 10 µM turned out to be 24%. In addition, the “levels of H2O2” value in the data set on MCF7 cells is “significant increase”. The IC50 at 48 h in data set [2] came to 6.64 µM.

For orientation: IC50 means the concentration needed to halve the response being measured. What is called remaining activity is the share of the control activity or signal that is left under treatment. A lower remaining activity goes with a large loss of activity.
